Results as given in ChEMBL document CHEMBL4251595, “Green approach for the synthesis of thiophenyl pyrazoles and isoxazoles by adopting 1,3-dipolar cycloaddition methodology and their antimicrobial activity” (2018).
Activity calls are given as the source filed them. No cut-off for these calls is given here.

Key:
Type in all cases: functional
[1] = tested on: Staphylococcus aureus; assay: Antimicrobial activity against Staphylococcus aureus assessed as zone of inhibition at 50 ug/well after 24 hrs by agar well diffusion method; details: for zone of inhibition at 50 µg/disc: read-out: DIZ
[2] = tested on: Staphylococcus aureus; assay: Antimicrobial activity against Staphylococcus aureus assessed as zone of inhibition at 75 ug/well after 24 hrs by agar well diffusion method; details: for zone of inhibition at 75 µg/disc: read-out: DIZ
[3] = tested on: Staphylococcus aureus; assay: Antimicrobial activity against Staphylococcus aureus assessed as zone of inhibition at 100 ug/well after 24 hrs by agar well diffusion method; details: for zone of inhibition at 100 µg/disc: read-out: DIZ
[4] = tested on: Bacillus subtilis; assay: Antimicrobial activity against Bacillus subtilis assessed as zone of inhibition at 50 ug/well after 24 hrs by agar well diffusion method; details: for zone of inhibition at 50 µg/disc: read-out: DIZ
[5] = tested on: Bacillus subtilis; assay: Antimicrobial activity against Bacillus subtilis assessed as zone of inhibition at 75 ug/well after 24 hrs by agar well diffusion method; details: for zone of inhibition at 75 µg/disc: read-out: DIZ
[6] = tested on: Bacillus subtilis; assay: Antimicrobial activity against Bacillus subtilis assessed as zone of inhibition at 100 ug/well after 24 hrs by agar well diffusion method; details: for zone of inhibition at 100 µg/disc: read-out: DIZ
[7] = tested on: Pseudomonas aeruginosa; assay: Antimicrobial activity against Pseudomonas aeruginosa assessed as zone of inhibition at 50 ug/well after 24 hrs by agar well diffusion method; details: for zone of inhibition at 50 µg/disc: read-out: DIZ
[8] = tested on: Pseudomonas aeruginosa; assay: Antimicrobial activity against Pseudomonas aeruginosa assessed as zone of inhibition at 75 ug/well after 24 hrs by agar well diffusion method; details: for zone of inhibition at 75 µg/disc: read-out: DIZ
[9] = tested on: Pseudomonas aeruginosa; assay: Antimicrobial activity against Pseudomonas aeruginosa assessed as zone of inhibition at 100 ug/well after 24 hrs by agar well diffusion method; details: for zone of inhibition at 100 µg/disc: read-out: DIZ
[10] = tested on: Klebsiella pneumoniae; assay: Antimicrobial activity against Klebsiella pneumoniae assessed as zone of inhibition at 50 ug/well after 24 hrs by agar well diffusion method; details: for zone of inhibition at 50 µg/disc: read-out: DIZ
[11] = tested on: Klebsiella pneumoniae; assay: Antimicrobial activity against Klebsiella pneumoniae assessed as zone of inhibition at 75 ug/well after 24 hrs by agar well diffusion method; details: for zone of inhibition at 75 µg/disc: read-out: DIZ
[12] = tested on: Klebsiella pneumoniae; assay: Antimicrobial activity against Klebsiella pneumoniae assessed as zone of inhibition at 100 ug/well after 24 hrs by agar well diffusion method; details: for zone of inhibition at 100 µg/disc: read-out: DIZ
[13] = tested on: Aspergillus niger; assay: Antifungal activity against Aspergillus niger assessed as zone of inhibition at 50 ug/well after 48 hrs by agar well diffusion method; details: for zone of inhibition at 50 µg/disc: read-out: DIZ
[14] = tested on: Aspergillus niger; assay: Antifungal activity against Aspergillus niger assessed as zone of inhibition at 75 ug/well after 48 hrs by agar well diffusion method; details: for zone of inhibition at 75 µg/disc: read-out: DIZ
[15] = tested on: Aspergillus niger; assay: Antifungal activity against Aspergillus niger assessed as zone of inhibition at 100 ug/well after 48 hrs by agar well diffusion method; details: for zone of inhibition at 100 µg/disc: read-out: DIZ
[16] = tested on: Penicillium chrysogenum; assay: Antifungal activity against Penicillium chrysogenum assessed as zone of inhibition at 50 ug/well after 48 hrs by agar well diffusion method; details: for zone of inhibition at 50 µg/disc: read-out: DIZ
[17] = tested on: Penicillium chrysogenum; assay: Antifungal activity against Penicillium chrysogenum assessed as zone of inhibition at 75 ug/well after 48 hrs by agar well diffusion method; details: for zone of inhibition at 75 µg/disc: read-out: DIZ
[18] = tested on: Penicillium chrysogenum; assay: Antifungal activity against Penicillium chrysogenum assessed as zone of inhibition at 100 ug/well after 48 hrs by agar well diffusion method; details: for zone of inhibition at 100 µg/disc: read-out: DIZ

SMILES | zone of inhibition at 50 µg/disc [1] | zone of inhibition at 75 µg/disc [2] | zone of inhibition at 100 µg/disc [3] | zone of inhibition at 50 µg/disc [4] | zone of inhibition at 75 µg/disc [5] | zone of inhibition at 100 µg/disc [6] | zone of inhibition at 50 µg/disc [7] | zone of inhibition at 75 µg/disc [8] | zone of inhibition at 100 µg/disc [9] | zone of inhibition at 50 µg/disc [10] | zone of inhibition at 75 µg/disc [11] | zone of inhibition at 100 µg/disc [12] | zone of inhibition at 50 µg/disc [13] | zone of inhibition at 75 µg/disc [14] | zone of inhibition at 100 µg/disc [15] | zone of inhibition at 50 µg/disc [16] | zone of inhibition at 75 µg/disc [17] | zone of inhibition at 100 µg/disc [18] | diameter of the inhibition zone (DIZ) [7] | diameter of the inhibition zone (DIZ) [16] | also measured
O=C(NS(=O)(=O)c1c(-c2ccccc2)noc1-c1ccccc1)c1cccs1 | 17 mm | 21 mm | 23 mm | 24 mm | 26 mm | 29 mm | 11 mm | 13 mm | 15 mm | 21 mm | 24 mm | 26 mm | 18 mm | 20 mm | 23 mm | 14 mm | 16 mm | 19 mm | – | – | –
O=C(NS(=O)(=O)C1C(c2ccccc2)=NN(c2ccccc2)C1c1ccccc1)c1cccs1 (stereo not given) | – | – | – | – | – | – | – | – | – | – | – | – | – | – | – | – | – | – | inactive | inactive | diameter of the inhibition zone (DIZ) [1]: inactive; diameter of the inhibition zone (DIZ) [2]: inactive; diameter of the inhibition zone (DIZ) [3]: inactive; diameter of the inhibition zone (DIZ) [4]: inactive; diameter of the inhibition zone (DIZ) [5]: inactive; diameter of the inhibition zone (DIZ) [6]: inactive; diameter of the inhibition zone (DIZ) [8]: inactive; diameter of the inhibition zone (DIZ) [9]: inactive; diameter of the inhibition zone (DIZ) [10]: inactive; diameter of the inhibition zone (DIZ) [11]: inactive; diameter of the inhibition zone (DIZ) [12]: inactive; diameter of the inhibition zone (DIZ) [13]: inactive; diameter of the inhibition zone (DIZ) [14]: inactive; diameter of the inhibition zone (DIZ) [15]: inactive; diameter of the inhibition zone (DIZ) [17]: inactive; diameter of the inhibition zone (DIZ) [18]: inactive
O=C(NS(=O)(=O)c1c(-c2ccccc2)noc1-c1ccccc1)c1ccc(Cl)s1 | 23 mm | 26 mm | 28 mm | 30 mm | 32 mm | 35 mm | 17 mm | 19 mm | 21 mm | 26 mm | 29 mm | 32 mm | 21 mm | 24 mm | 28 mm | 17 mm | 19 mm | 22 mm | – | – | –
Cc1ccc(C2ON=C(c3ccccc3)C2S(=O)(=O)NC(=O)c2cccs2)cc1 (stereo not given) | – | – | – | – | – | – | – | – | – | – | – | – | – | – | – | – | – | – | inactive | inactive | diameter of the inhibition zone (DIZ) [1]: inactive; diameter of the inhibition zone (DIZ) [2]: inactive; diameter of the inhibition zone (DIZ) [3]: inactive; diameter of the inhibition zone (DIZ) [4]: inactive; diameter of the inhibition zone (DIZ) [5]: inactive; diameter of the inhibition zone (DIZ) [6]: inactive; diameter of the inhibition zone (DIZ) [8]: inactive; diameter of the inhibition zone (DIZ) [9]: inactive; diameter of the inhibition zone (DIZ) [10]: inactive; diameter of the inhibition zone (DIZ) [11]: inactive; diameter of the inhibition zone (DIZ) [12]: inactive; diameter of the inhibition zone (DIZ) [13]: inactive; diameter of the inhibition zone (DIZ) [14]: inactive; diameter of the inhibition zone (DIZ) [15]: inactive; diameter of the inhibition zone (DIZ) [17]: inactive; diameter of the inhibition zone (DIZ) [18]: inactive
Cc1ccc(-c2c(S(=O)(=O)NC(=O)c3cccs3)c(-c3ccccc3)nn2-c2ccccc2)cc1 | 9 mm | 12 mm | 14 mm | 16 mm | 18 mm | 21 mm | – | 8 mm | 11 mm | 14 mm | 16 mm | 18 mm | 12 mm | 15 mm | 17 mm | – | 8 mm | 10 mm | inactive | inactive | –
